From patent US7048943B2, “Carotenoid-loaded liposomes” (Yissum Research Development Company of the Hebrew …, priority 2001, dated 2006)
In brackets after ≈: the same amount, converted by molar mass. Blank lines part the entries; values can stand above or below the compound they belong to.

What was measured:
[1] = test system: Epidermal equivalents (normal, human-derived epidermal keratinocytes); assay: Protection against UV induced loss of viability (LDH release); format: cell-based
Protocol: (§1) Cell Culture • Epidermal equivalents (4.0 cm^2) were purchased from SkinEthic (Nice, France). Each equivalent served as a multilayered model of the epidermis consisting of normal, human-derived epidermal keratinocytes. Equivalents were cultured in a defined hydrocortisone and phenol red free medium supplied from SkinEthic. Instruments • Kontron (Switzerland) HPLC system. 425 pump, 430 detector, 460 automatic injector and 450 data analysis system. Column: LiChroCART®250-4, RP-select B (5 μm), Merck catalog no. […]
(§2) Twenty four hours post irradiation, the culture medium was collected from the treated epidermal equivalents and evaluated for IL-1α release levels using a commercially available ELISA kit. Cell viability was determined immediately post irradiation using LDH leakage measurments.
(§3) Epidermal Equivalents were purchased from SkinEthic (Nice, France) and cultured in phenol free, hydrocortisone free media. […] Forty-eight hours post irradiation, the medium beneath each equivalent was collected and analyzed for secreted IL-1α by ELISA (Endogen). LDH level (Boehringer Mannheim) was measured immediately post irradiation and after 48 hours to determine the effect of treatment and UV exposure on cell viability. […]

[2] = test system: Epidermal equivalents (normal, human-derived epidermal keratinocytes); assay: Protection against UV induced IL-1α release; format: cell-based; settings: at 0.01%, UV irradiation
Protocol: as §1, §2, §3

[3] = Partition of lycopene in tri-phase system (soya oil / water / egg PC SUV); format: physicochemical; settings: for Kp Lip/Oil: partition coefficient liposome/oil, liposomes 10% by weight; for Liposome/oil: ratio of lycopene in liposomal phase to oil phase; for Insoluble lycopene / lycopene concentration, Liposomal phase / lycopene concentration, Oil phase: soya oil / water / egg PC SUV, highest lycopene level; for lycopene concentration, Liposomal phase / lycopene concentration, Oil phase: mixed 2 hours at room temperature
Protocol: The partition coefficient of lycopene in tri-phase systems was also evaluated. Tri-phase systems may serve for the determination of availability of the lycopene into biological membranes. The system used herein was composed from […]: soya oil in which the lycopene was present and water in which liposomes (10% by weight) in the form of small unilamellar vesicles (SUV) composed of pure egg phosphatidyl choline are present as the third phase.
The small unilamellar liposomes (SUV) composed of pure lipid (Ludwigshafen, Germany) egg phosphatidylcholine (egg PC) of an 80 nm were prepared and characterized as described by Haran et al. [Haran G. et al. Biochim. Biophys. Acta 1151:201–215 (1993)]. SUV egg PC size was ˜80 nm. The partition coefficient in the three phase system was performed at three different levels of lycopene—low, medium and high amounts, using crystalline lycopene (originated from fungi), 92% powder (LycoRed), 75% powder lycopene (LycoRed) and oleoresin (containing 6.06% by weight of lycopene). In case of the highest level, lycopene from tomato concentrate (containing 0.073% lycopene) was also evaluated.
Preparation of the three phase systems included the following steps; first, lycopene was dispersed in soya oil (4 ml) by ultrasonic irradiation in an ultrasonic bath (35 kHz, 285W). Then, the precipitate was removed, aliquots of the oil were diluted in isopropanol with ratio ranging from 1:10 to 1:100 and the concentration of lycopene in oil phase was determined.
Then, to soya oil saturated with lycopene (1.5 ml) egg PC SUV in water (1.5 ml) were added to form the three phase system. The system was then mixed for 2 hours at room temperature using a flask shaker (A5-6021, St. John Associate Inc.), after which aliquots of the oil phase and the liposomal aqueous phase were removed.
In particular, the aqueous phase was extracted using heptane into which more than 98% of the lycopene was extracted. This extract was evaporated to dryness and the residue was dissolved in 200 μl isopropanol and analyzed by HPLC to determine the amount of lycopene present in the liquid and oil phase.
The concentration of lycopene in the liposome phase was calculated based on the procedure of Samuni and Barenholz [Samuni A. M. and Barenholz Y, Biol. Med. 22:1165–1174 (1996); Barenholz Y. et al. M. Biophys. J. 59:110–124 (1991)]. The following Table 4 summarizes the results obtained.

CD-1 Mice = assay: Oxazolone induced ear edema; format: in vivo; settings: topical on left ear 1 hour after 2% oxazolone challenge, ear punch weight after 24 hours, versus vehicle group
Protocol: CD-1 Mice were induced with 3% oxazolone (Sigma) (30 mg/ml) made up in corn oil: acetone on a shaved abdomen. Five days later the mice were challenged with a 2% oxazolone (20 (mg/ml) in acetone on the left ear, right ear was untreated. One hour after challenging, the formulations examined (E1–E8) in a 70% EtOH/30% propylene glycol vehicle were applied onto the left ear. After 24 hours the mice were sacrificed and 7 mm ear punches were taken. The ear punches were placed on a scale and the difference between the treated and untreated ears was measured.
The percent inhibition was calculated by comparing the means of each group to the vehicle group. The positive control was hydrocortisone.

[4] = Entrapment of lycopene in MLV liposomes; format: physicochemical; settings: liposomes composed of lipid/lycopene 10:1
Protocol: Method of Preparation—The phospholipids were dissolved in cyclohexane at a w/v ratio of 1 mg phospholipid per 10 ml cyclohexane. The dissolving required heating for several seconds at 60° C. and/or sonication for up to 3 minutes. Lycopene was added as powder to the solution, which was then vortexed. The resulting solution was lyophilized overnight and kept at −20° C. until use. To form multilamellar liposome (MLV), 2 ml of 0.9% NaCl were added to the lyophilizate followed by vortex to yield MLV encapsulated lycopene.
Method of Preparation—Lycopene was dissolved in cyclohexane at a w/v ratio of 1 mg of lycopene per 2 ml of cyclohexane. The dissolving required heating for several seconds at 60° C. and sonication for up to 3 minutes until all the lycopene was dissolved. The phospholipids were added as powder to the solution and the mixture was mixed with vortex. The solution was lyophilized overnight in bottles and closed in vacuum. The lyophilized bottles were kept at −20° C. until use.
To form MLV encapsulated lycopene, 2 ml of 0.9% NaCl were added followed by vortex. The percentage of entrapment of lycopene in the formulation was 85.31%.
In general, the population of the liposomes was heterogeneous. […] The 75% lycopene entrapment in liposomes composed of lipid/lycopene 10:1 was measured, wherein 17.5% of the lycopene was entrapped in the MLV. […]

[5] = Solubility of lycopene in organic solvents (saturation concentration, HPLC and absorbance at 472 nm)
Protocol: Lycopene Quantification—lycopene was analyzed for degradation and quantified by The HPLC buffer used comprised acetonitrile: methanol: methylene chloride: hexane and a ratio of 850:100:25:25 (all HPLC grade, Hoffman La Roche). Quantification was based on a standard curve obtained for lycopene (LycoRed standard. The amount of lycopene was also determined by absorbance at 472 nm.
All samples were diluted with ethanol before measurement. The saturation concentrations of the lycopene were determined by BPLC and by the use of a spectrophotometer (absorbance at 472 nm, where the area under the peak was measured). The saturation limit was defined as the concentration where a precipitate first appears. The concentration of lycopene at saturation was determined after removal of precipitate by high speed centrifugation from the absorbance at 472 nm (the λmax for the ‘red’ form of lycopene) using double beam UVikon 860 (Kontron, Switzerland) spectrometer.
Both types of lycopene were in a powder form before dissolving in cyclohexane. […] These measures were taken after a year and a half of storage at −20° C.

SMILES: O=C(O)CCCC[C@@H]1CCSS1 (racemic) [Lipoic Acid, lipoic acid]
Loss of viability (LDH), LDH release, protection ([1]; at 1%, UV irradiation (Table 7C)): 100% protection with 1%

SMILES: O=C1O[C@H]([C@@H](O)CO)C(O)=C1O [Ascorbic acid, ascorbic acid]
LDH Release, protection, First assay ([1]; at 0.01%, UV irradiation): 100% protection with 0.01%
IL-1α release, protection, First assay [2]: 100% protection with 0.01%

SMILES: CC(C)=CCC/C(C)=C/C=C/C(C)=C/C=C/C(C)=C/C=C/C=C(C)/C=C/C=C(C)/C=C/C=C(\C)CCC=C(C)C [Crystalline, lycopene, reference compound]
Kp Lip/Oil [3]: 0.00952
Liposome/oil [3]: 0.00095
Insoluble lycopene [3]: 6.9740 mμ
lycopene concentration, Liposomal phase [3]: 0.0001 mμ
lycopene concentration, Oil phase [3]: 0.1458 mμ

SMILES: C[C@]12CCC(=O)C=C1CC[C@@H]1[C@@H]2[C@@H](O)C[C@@]2(C)[C@H]1CC[C@]2(O)C(=O)CO [Hydrocortisone, hydrocortisone]
% inhibition (CD-1 Mice): 92.6%

Further lines, results first:

Kp Lip/Oil [3]: 0.4141
Liposome/oil [3]: 0.0414
Insoluble lycopene [3]: 6.7084 mμ
lycopene concentration, Liposomal phase [3]: 0.0020 mμ
lycopene concentration, Oil phase [3]: 0.0495 mμ
SMILES: CC(C)=CCC/C(C)=C/C=C/C(C)=C/C=C/C(C)=C/C=C/C=C(C)/C=C/C=C(C)/C=C/C=C(\C)CCC=C(C)C [Power 92% Powder, lycopene]

lycopene entrapped in the MLV [4]: 17.5%
maximal solubility in cyclohexane ([5]; after a year and a half of storage at −20° C.): 1960 µM
Concentration (mM)/HPLC ([5]; saturation in Cyclohexane): 0.22 mM
Concentration (mM)/HPLC ([5]; saturation in Soy oil): 0.14 mM
Concentration (mM)/HPLC ([5]; saturation in ethanol): 0.059 mM
Concentration (mM)/HPLC ([5]; saturation in i-propanol): 0.037 mM
Concentration (mM)/HPLC ([5]; saturation in n-hexane): 0.18 mM
Concentration (mM)/HPLC ([5]; saturation in t-butanol): 0.016 mM
Kp Lip/Oil ([3]; listed as Powder 75%): 0.4972
Liposome/oil ([3]; listed as Powder 75%): 0.0497
Insoluble lycopene ([3]; listed as Powder 75%): 5.7899 mμ
lycopene concentration, Liposomal phase ([3]; listed as Powder 75%): 0.0062 mμ
lycopene concentration, Oil phase ([3]; listed as Powder 75%): 0.1239 mμ
SMILES: CC(C)=CCC/C(C)=C/C=C/C(C)=C/C=C/C(C)=C/C=C/C=C(C)/C=C/C=C(C)/C=C/C=C(\C)CCC=C(C)C [lycopene 75%, lycopene]

solubility ([5]; cyclohexane, organic solvent or mixture, thermodynamic from solid, maximal solubility in cyclohexane, after a year and a half of storage at −20° C.): 2650 µM (≈ 1420 µg/mL)
SMILES: CC(C)=CCC/C(C)=C/C=C/C(C)=C/C=C/C(C)=C/C=C/C=C(C)/C=C/C=C(C)/C=C/C=C(\C)CCC=C(C)C [lycopene 95%, lycopene]

solubility in an aqueous phase ([3]; conclusion from tri-phase system): very low, if any
SMILES: CC(C)=CCC/C(C)=C/C=C/C(C)=C/C=C/C(C)=C/C=C/C=C(C)/C=C/C=C(C)/C=C/C=C(\C)CCC=C(C)C [lycopene]
